Laboratory results from US9611246B2, “Compositions, apparatus, systems, and methods for resolving electronic excited states” (HALLSTAR INNOVATIONS CORP., priority 2012, dated 2017).

What was measured:
[1] = Voltammetry, redox potential with respect to Ag/AgCl reference electrode; assay type: physicochemical; conditions: vs Ag/AgCl
Excerpt: For these experiments, dimethylsulfoxide (DMSO) and tetrabutylammonium perchlorate (TBAP) were obtained from Sigma Aldrich and used as received. […] Platinum wires (BASi MW-1032) of diameter 0.5 mm were employed for both the working electrode (WE) and counter electrode (CE). A dry-solvent tolerant Ag/AgCl reference electrode (RE) was obtained from eDAQ (Model ET072). The WE and CE were cleaned prior to each by first rinsing in acetone, then DI, followed by soaking in ˜50% aqueous H2SO4 for 10-20 minutes and then a final DI rinse. The RE electrode was cleaned prior to each use by an acetone rinse followed by DI rinse. Each sample solution was prepared in a fresh glass vial which had been rinsed with DI then acetone and allowed to dry Immediately after preparing each solution, it was purged with pure N2 gas for 15-20 minutes with the electrodes in place. Voltammetry data was collected shortly afterwards with an EG&G PAR 263 A Potentiostant/Galvanostat operated using a Labview-based control program. Scans were performed at various potential ranges between +2.0V and −2.0V (vs Ag/AgCl); all scan rates were constant at 200 mV/s.

[2] = Protoporphyrin IX fluorescence lifetime quenching (singlet excited state); assay type: physicochemical; conditions: PPIX; for bimolecular quenching rate constant for singlet excited state quenching (in words): acetonitrile; for Singlet Quenching Rate Constant: acetonitrile solutions at room temperature
Experimental: Fluorescence lifetime measurements are a convenient way to measure singlet state quenching by stabilizers. Protoporphyrin IX decay traces were recorded in the absence and presence of compound I(a)(1) and alkoxy […] (FIG. 3). […] The collected data shown in FIG. 3 were used to determine the bimolecular quenching rate constant for singlet excited state quenching by the compounds. The quenching rate constant may be directly extracted from the slope of the plot of the inverse fluorescence lifetime vs. the concentration of the two compounds (FIG. 4). […] The biomolecular quenching rate constants for singlet excited state (kq^S) and triplet excited state (kq^T) quenching of PPIX by stabilizers in acetonitrile solutions at room temperature is shown in Table 4, as well and the Stern-Volmer rate constants.

[3] = Protoporphyrin IX triplet state quenching by laser flash photolysis; assay type: physicochemical; conditions: PPIX, acetonitrile solutions at room temperature
Experimental: To investigate if triplet states of protoporphyrin IX are quenched by the two compounds, laser flash photolysis experiments were performed. In these experiments, a deoxygenated acetonitrile solution of protoporphyrin IX is excited with short laser pulses from a Nd-YAG laser (355 nm, 5 ns pulse width). Difference absorption kinetic traces were recorded at different observation wavelengths (300 to 800 nm) and from these a transient absorption spectrum was constructed (FIG. 5A). […] In addition, two bands are observed at 320 and 440 nm, which are assigned to the triplet-triplet absorption of protoporphyrin IX. […] Triplet absorption kinetics at 440 nm may be utilized to obtain triplet quenching rate constants by the stabilizers. Triplet decay traces at 440 nm were recorded in the presence of different amounts of the alkoxy […], Formulas […])(1), and the mixture of II(b)(1) and II(c)(1). The decay traces were fitted to a first-order kinetics. The plot of these pseudo-first-order rate constants (inverse decay lifetime) vs. the concentration of the two compounds gives directly the bimolecular triplet quenching rate constant from the slope (FIG. 6). The biomolecular quenching rate constants for singlet excited state (kq^S) and triplet excited state (kq^T) quenching of PPIX by stabilizers in acetonitrile solutions at room temperature is shown in Table 4, as well and the Stern-Volmer rate constants.

[4] = Stern-Volmer analysis of singlet oxygen suppression; assay type: physicochemical
Excerpt: The singlet oxygen phosphorescence intensity in the absence of the compound of Formulas I(a)(1), II(a)(1), II(d)(1), II(e)(1), or a mixture of II(b)(1) and II(c)(1) (I0) divided by the singlet oxygen phosphorescence intensity in the presence of compounds of Formula I/II(I) was plotted against the Formula I/II concentration (FIG. 16). From the slope of these plots (Stern-Volmer constant) and the lifetime of the quenched excited state, the bimolecular quenching constant can be extracted. If the excited state, which is quenched by the compound of Formula I(a)(1) (which causes a reduction in singlet oxygen production) is the singlet excited state of protoporphyrin IX then, using the previously measured fluorescence lifetime in acetonitrile (if =12.7 ns) a quenching rate constant of 2.4×10^9 M^−1 s^−1 is estimated. […] The rate constant derived from singlet oxygen phosphorescence quenching (FIG. 16) is only half of the more directly derived rate constant from fluorescence quenching, which could be caused by the difference in solvents or by some contribution of protoporphyrin triplet quenching by the compound of Formula I(a)(1). […] This rate constant is 5 times higher than the directly measured rate constant by laser flash photolysis (6.1×10^6 M^−1 s^−1). […] It must be noted that protoporphyrin IX triplet lifetime of ˜1 μs in air saturated DMSO was only estimated based on the directly measured triplet lifetime in air saturated acetonitrile and considering the different oxygen concentration in DMSO compared to acetonitrile. If necessary, the protoporphyrin IX triplet lifetime in air saturated DMSO can easily be measured by laser flash photolysis. The complex reaction mechanism is summarized in Scheme 1 (FIG. 17).
The biomolecular quenching rate constants for singlet excited state (kq^S) and triplet excited state (kq^T) quenching of PPIX by stabilizers in acetonitrile solutions at room temperature is shown in Table 4, as well and the Stern-Volmer rate constants.
Stern-Volmer constants are in direct correlation with the singlet oxygen suppression efficiency. Table 4 (above) summarizes the Stern-Volmer constants and PPIX singlet and triplet state quenching rate constants. Three different ranges of Stern-Volmer constants were observed. […] For compounds I(a)(1), II(d)(1), and the mixture of II(b)(1) and II(c)(1), Stern-Volmer constants of about 30 M^−1 were observed. For these three stabilizers, high PPIX singlet quenching rate constants (about 5×10^9 M^−1 s^−1) but low triplet quenching rate constants (<10^9 M^−1 s^−1) were observed. Here, the singlet oxygen suppression is probably dominated by PPIX singlet excited state quenching by these stabilizers. […] Because of the very high PPIX triplet quenching rate constant by compound II(a)(1) (3.2×10^9 M^−1 s^−1), the singlet oxygen suppression is probably dominated by triplet quenching. […] These kinetic parameters may include the MePPIX triplet and singlet lifetimes in air saturated and oxygen free CDCl3 and the bimolecular quenching constant by oxygen.

[5] = Photostabilization of Avobenzone and OMC, solution on quartz (Experiment 6-2); assay type: physicochemical; conditions: Avobenzone 3%, OMC 7.5%
Excerpt: Experiment 6-2 compares the compounds at 3% to photostabilize Avobenzone at 3% and OMC at 7.5%. The results are shown in Table 2 and graphically in FIG. 20.

[6] = UV and visible light absorption spectra of stabilizers; assay type: physicochemical; conditions: acetonitrile
Experimental: UV and visible light absorption spectra were recorded to investigate to what extent each stabilizer itself absorbs UV light. […] Protoporphyrin IX has weak absorption bands above 450 nm, where the two compounds are transparent (FIG. 2). The compound with the oxygen bridge (Formula II(d)(1)) caused a bathocromic shift of the UV absorption of the lowest energy band. The compound with the sulfur bridge (Formula II(e)(1)) shifted the lowest energy band further into the visible region.

[7] = system: visible light-induced free radicals in pig skin; assay: Visible light-induced free radicals in ALA-treated pig skin by Electron Spin Resonance; conditions: 1% reference
Experimental: A conjugated fused tricycle compound according to Formula II(a)(1) reduced visible light-induced free radicals in skin by up to 89% and did so in a dose-dependent manner (FIG. 21). The study was conducted using pig skin, which is recognized for its similarity to human skin. Topical application of aminolevulinic acid (ALA) induced the skin to over-produce the endogenous photosensitizer Protoporphyrin IX (PPIX). Solutions of Formula II(a)(1) at different concentrations were then topically applied to the ALA treated skin after which it was exposed to bright green light. The resulting free radical content of the skin was then measured by Electron Spin Resonance (ESR). Studies conducted in solution have shown that Formula II(a)(1) suppresses singlet oxygen production by PPIX. […] The mechanisms of action of Formula II(a)(1) and Tocopherol are different: the former prevents free radicals from forming; the latter scavenges free radicals after they appear.

[8] = reference value; cited from earlier work
[9] = 0.01 M in 0.1 M TBAP in DMSO, 200 mV/s

| Compound | % UVA ([5]; stabilizer level 1.0) | % UVB ([5]; stabilizer level 1.0) | % UVA ([5]; stabilizer level 2.0) | % UVB ([5]; stabilizer level 2.0) | % UVA ([5]; stabilizer level 4.0) | % UVB ([5]; stabilizer level 4.0) | other results |
| --- | --- | --- | --- | --- | --- | --- | --- |
| COC(=O)C(C#N)=c1c2ccccc2c(=C(C#N)C(=O)OC)c2ccccc12 [Formula II(b)(1)] | – | – | – | – | – | – | first (or only) redox couple, oxidation peak [1, 9]: +54 mV; first (or only) redox couple, reduction peak [1, 9]: −545 mV; first (or only) redox couple, redox potential ([1]; estimated from the peaks): −245 mV |
| COC(=O)C(C#N)=C1c2ccccc2Oc2ccccc21 [Formula II(d)(1)] | – | – | – | – | – | – | bimolecular quenching rate constant for singlet excited state quenching (in words) [2]: high quenching rate constant; Singlet Quenching Rate Constant [2]: 3.7 10^9 M^−1s^−1; Triplet Quenching Rate Constant [3]: 0.14 10^9 M^−1s^−1 |
| COC(=O)C(C#N)=C1c2ccccc2Sc2ccccc21 [Formula II(e)(1)] | – | – | – | – | – | – | bimolecular quenching rate constant for singlet excited state quenching (in words) [2]: high quenching rate constant; Singlet Quenching Rate Constant [2]: 0.65 10^9 M^−1s^−1; Triplet Quenching Rate Constant [3]: 0.0012 10^9 M^−1s^−1; Stern-Volmer Constant of ^1O2 Suppression [4]: 1.2 M⁻¹; singlet oxygen suppression (in words) [4]: only negligible singlet oxygen suppression; second redox couple, oxidation peak (large) [1]: +434 mV; first (or only) redox couple, oxidation peak [1, 9]: −782 mV; first (or only) redox couple, reduction peak [1, 9]: −969 mV; second redox couple, reduction peak [1, 9]: −1409 mV; first (or only) redox couple, redox potential ([1]; estimated from the peaks): −875 mV; second redox couple, redox potential ([1]; estimated from the peaks): −1347 mV; second redox couple, oxidation peak ([1]; the small peak where two are given): −1286 mV |
| CCCCC(CC)COC(=O)C(C#N)=C1c2ccccc2Oc2ccccc21 (centres unmarked) [Formula Y-1-9, Ethylhexyl cyano xanthenylidene acetate] | 88.6% | 91.8% | 88.6% | 91.1% | 94.5% | 95.3% | – |
| CCCCC(CC)COC(=O)C(C#N)=C1c2ccccc2Sc2ccccc21 (centres unmarked) [Formula Y-1-15, Ethylhexyl cyano thioxanthenylidene acetate] | 85.5% | 90.0% | 91.0% | 93.8% | 90.8% | 93.9% | – |
| CCCCC(CC)COC(=O)C(C#N)=C(c1ccccc1)c1ccc(OC)cc1 (centres unmarked) [SolaStay S1, ethylhexyl methoxycrylene, reference compound] | 81.3% | 87.8% | 84.2% | 90.1% | 87.3% | 91.5% | λmax [6]: 336 nm; extinction coefficient (molar absorptivity) ([6]; at λmax): 13,200 M −1 cm −1 |
| Cc1c(C)c2c(c(C)c1O)CCC(C)(CCCC(C)CCCC(C)CCCC(C)C)O2 (centres unmarked) [Tocopherol, reference compound] | – | – | – | – | – | – | Free Radicals (a.u.) ([7]; ALA-treated pig skin): 1955 ± 366 a.u.; Free Radicals (%) ([7]; relative to 0 mM control): 78% |
| O=C(c1ccccc1)c1ccccc1 [benzophenone] | – | – | – | – | – | – | quantum yield of singlet oxygen generation (reference) [8]: 0.35 |
| Ethylhexyl dimethyl 2,2′-anthracene-9,10-diylidenebis(cyanoacetate) [Formula Y-1-22] | 82.1% | 87.8% | 87.8% | 92.1% | 91.0% | 94.7% | – |
